Source: US12091425B2 (AMGEN INC., priority 2016, dated 2024)

Key:
[1] = target: T1, Mcl-1/Bim interaction, recombinant human Mcl-1 (171-327) (Homo sapiens, UniProt Q07820); test: Cell free Mcl-1: Bim Affinity Assay (Mcl-1 HTRF); type: binding; conditions: TR-FRET, 0.1 nM Mcl-1 (171-327), 0.05 nM biotin-Bim (51-76)
T1 construct: made in house
Summary of the method: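 TR-FRET competition assay with biotinylated human Bim peptide (residues 51-76); reaction plates incubated overnight before reading. IC50 values came from duplicate data fitted to a four-parameter sigmoidal competition curve.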

[2] = system: OPM-2 human multiple myeloma cell line; test: Cell Viability Assay (OPM-2 10 FBS); type: cell-based; conditions: Homo sapiens, OPM-2, 16 h, OPM-2 cells, 16 h incubation, CellTiter-Glo
Summary of the method: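 IC50 from 4-parameter logistic fit of CellTiter-Glo luminescence. 3000 cells/well, 10% FBS medium, serial compound dilutions, 16 h, 37 °C/5% CO2; read 25 min post-reagent.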

T1 sequence (Q07820 171-327): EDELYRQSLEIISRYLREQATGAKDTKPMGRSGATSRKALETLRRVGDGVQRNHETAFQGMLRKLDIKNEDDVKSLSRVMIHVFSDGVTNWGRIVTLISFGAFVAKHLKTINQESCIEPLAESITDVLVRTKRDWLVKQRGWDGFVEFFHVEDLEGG

Compound | IC50 [1] | IC50 [2]
COCCO[C@H]1/C=C/[C@H](C)C[C@@H](C)S(=O)(=O)NC(=O)c2ccc3c(c2)N(C[C@@H]2CC[C@H]21)C[C@@]1(CCCc2cc(Cl)ccc21)CO3 [Example 1017, (1S,3′R,6′R,7′S,8′E,10′R,12′R)-6-chloro-7′-(2-methoxyethoxy)-10′,12′-dimethyl-3,4-dihydro-2H,15′H-spiro[naphthalene-1,22′-[20]oxa[13]thia[1,14]diazatetracyclo[14.7.2.0^3,6.0^19,24]pentacosa [8,16,18,24]tetraen]-15′-one 13′,13′-dioxide] | 0.339 nM | 310 nM
C[C@@H]1C[C@@H](C)/C=C/[C@H](OCCN2CCOCC2)[C@@H]2CC[C@H]2CN2C[C@@]3(CCCc4cc(Cl)ccc43)COc3ccc(cc32)C(=O)NS1(=O)=O [Example 1018, (1S,3′R,6′R,7′S,8′E,10′R,12′R)-6-chloro-10′,12′-dimethyl-7′-(2-(4-morpholinyl)ethoxy)-3,4-dihydro-2H,15′H-spiro[naphthalene-1,22′-[20]oxa[13]thia[1,14]diazatetracyclo[14.7.2.0^3,6.0^19,24]pentacosa [8,16,18,24]tetraen]-15′-one 13′,13′-dioxide] | 0.356 nM | 285 nM
CO[C@H]1/C=C/[C@@H](C)C[C@@H](C)S(=O)(=O)NC(=O)c2ccc3c(c2)N(C[C@@H]2CC[C@H]21)C[C@@]1(CCCc2cc(Cl)ccc21)CO3 [Example 1019, (1S,3′R,6′R,7′S,8′E,10′S,12′R)-6-chloro-7′-methoxy-10′,12′-dimethyl-3,4-dihydro-2H,15′H-spiro[naphthalene-1,22′-[20]oxa[13]thia[1,14]diazatetracyclo[14.7.2.0^3,6.0^19,24]pentacosa [8,16,18,24]tetraen]-15′-one 13′,13′-dioxide] | 0.497 nM | 475 nM
COCCO[C@H]1/C=C/[C@@H](C)C[C@@H](C)S(=O)(=O)NC(=O)c2ccc3c(c2)N(C[C@@H]2CC[C@H]21)C[C@@]1(CCCc2cc(Cl)ccc21)CO3 [Example 1020, (1S,3′R,6′R,7′S,8′E,10′S,12′R)-6-chloro-7′-(2-methoxyethoxy)-10′,12′-dimethyl-3,4-dihydro-2H,15′H-spiro[naphthalene-1,22′-[20]oxa[13]thia[1,14]diazatetracyclo[14.7.2.0^3,6.0^19,24]pentacosa [8,16,18,24]tetraen]-15′-one 13′,13′-dioxide] | 1.05 nM | 759 nM
CC[C@@H]1C[C@@H](C)/C=C/[C@H](OCCN2CCOCC2)[C@@H]2CC[C@H]2CN2C[C@@]3(CCCc4cc(Cl)ccc43)COc3ccc(cc32)C(=O)NS1(=O)=O [Example 1026, (1S,3′R,6′R,7′S,8′E,10′R,12′R)-6-chloro-12′-ethyl-10′-methyl-7′-(2-(4-morpholinyl)ethoxy)-3,4-dihydro-2H,15′H-spiro[naphthalene-1,22′-[20]oxa[13]thia[1,14]diazatetracyclo[14.7.2.0^3,6.0^19,24]pentacosa [8,16,18,24]tetraen]-15′-one 13′,13′-dioxide] | 1.12 nM | 288 nM
C[C@@H]1[C@@H](C)S(=O)(=O)NC(=O)c2ccc3c(c2)N(C[C@@H]2CC[C@H]2[C@@H](O)CC[C@@H]1C)C[C@@]1(CCCc2cc(Cl)ccc21)CO3 [Example 1045, (1S,3′R,6′R,7′S,10′S,11′S,12′R)-6-chloro-7′-hydroxy-10′,11′,12′-trimethyl-3,4-dihydro-2H,15′H-spiro[naphthalene-1,22′-[20]oxa[13]thia[1,14]diazatetracyclo[14.7.2.0^3,6.0^19,24]pentacosa [16,18,24]trien]-15′-one 13′,13′-dioxide] | 0.294 nM | 1140 nM
C[C@H]1[C@H](C)CC[C@H](O)[C@@H]2CC[C@H]2CN2C[C@@]3(CCCc4cc(Cl)ccc43)COc3ccc(cc32)C(=O)NS(=O)(=O)[C@@H]1C [Example 1046, (1S,3′R,6′R,7′S,10′R,11′S,12′R)-6-chloro-7′-hydroxy-10′,11′,12′-trimethyl-3,4-dihydro-2H,15′H-spiro[naphthalene-1,22′-[20]oxa[13]thia[1,14]diazatetracyclo[14.7.2.0^3,6.0^19,24]pentacosa [16,18,24]trien]-15′-one 13′,13′-dioxide] | 0.785 nM | 2520 nM
CO[C@H]1/C=C/[C@H](C)[C@H](C)[C@@H](C)S(=O)(=O)NC(=O)c2ccc3c(c2)N(C[C@@H]2CC[C@H]21)C[C@@]1(CCCc2cc(Cl)ccc21)CO3 [Example 1047, (1S,3′R,6′R,7′S,8′E,10′S,11′S,12′R)-6-chloro-7′-methoxy-10′,11′,12′-trimethyl-3,4-dihydro-2H,15′H-spiro[naphthalene-1,22′-[20]oxa[13]thia[1,14]diazatetracyclo[14.7.2.0^3,6.0^19,24]pentacosa [8,16,18,24]tetraen]-15′-one 13′,13′-dioxide] | 0.424 nM | 300 nM
COCCO[C@H]1/C=C/[C@H](C)[C@H](C)[C@@H](C)S(=O)(=O)NC(=O)c2ccc3c(c2)N(C[C@@H]2CC[C@H]21)C[C@@]1(CCCc2cc(Cl)ccc21)CO3 [Example 1048, (1S,3′R,6′R,7′S,8′E,10′S,11′S,12′R)-6-chloro-7′-(2-methoxyethoxy)-10′,11′,12′-trimethyl-3,4-dihydro-2H,15′H-spiro[naphthalene-1,22′-[20]oxa[13]thia[1,14]diazatetracyclo[14.7.2.0^3,6.0^19,24]pentacosa [8,16,18,24]tetraen]-15′-one 13′,13′-dioxide] | 0.299 nM | 90.8 nM

Second part, the molecule after the results:

IC50 [1] | IC50 [2] | Compound
0.264 nM | 126 nM | C[C@@H]1[C@@H](C)S(=O)(=O)NC(=O)c2ccc3c(c2)N(C[C@@H]2CC[C@H]2[C@@H](OCCN2CCOCC2)/C=C/[C@@H]1C)C[C@@]1(CCCc2cc(Cl)ccc21)CO3 [Example 1049, (1S,3′R,6′R,7′S,8′E,10′S,11′S,12′R)-6-chloro-10′,11′,12′-trimethyl-7′-(2-(4-morpholinyl)ethoxy)-3,4-dihydro-2H,15′H-spiro[naphthalene-1,22′-[20]oxa[13]thia[1,14]diazatetracyclo[14.7.2.0^3,6.0^19,24]pentacosa [8,16,18,24]tetraen]-15′-one 13′,13′-dioxide]
0.589 nM | 288 nM | CCOC(=O)CO[C@H]1/C=C/[C@H](C)[C@H](C)[C@@H](C)S(=O)(=O)NC(=O)c2ccc3c(c2)N(C[C@@H]2CC[C@H]21)C[C@@]1(CCCc2cc(Cl)ccc21)CO3 [Example 1050, ethyl (((1S,3′R,6′R,7′S,8′E,10′S,11′S,12′R)-6-chloro-10′,11′,12′-trimethyl-13′,13′-dioxido-15′-oxo-3,4-dihydro-2H-spiro[naphthalene-1,22′-[20]oxa[13]thia[1,14]diazatetracyclo[14.7.2.0^3,6.0^19,24]pentacosa [8,16,18,24]tetraen]-7′-yl)oxy)acetate]
0.0197 nM | 1900 nM | C[C@@H]1[C@@H](C)S(=O)(=O)NC(=O)c2ccc3c(c2)N(C[C@@H]2CC[C@H]2[C@@H](OCC(=O)O)/C=C/[C@@H]1C)C[C@@]1(CCCc2cc(Cl)ccc21)CO3 [Example 1051, (((1S,3′R,6′R,7′S,8′E,10′S,11′S,12′R)-6-chloro-10′,11′,12′-trimethyl-13′,13′-dioxido-15′-oxo-3,4-dihydro-2H-spiro[naphthalene-1,22′-[20]oxa[13]thia[1,14]diazatetracyclo[14.7.2.0^3,6.0^19,24]pentacosa [8,16,18,24]tetraen]-7′-yl)oxy)acetic Acid]
0.11 nM | 95.7 nM | C[C@@H]1[C@@H](C)S(=O)(=O)NC(=O)c2ccc3c(c2)N(C[C@@H]2CC[C@H]2[C@@H](OCC(=O)N(C)C)/C=C/[C@@H]1C)C[C@@]1(CCCc2cc(Cl)ccc21)CO3 [Example 1052, 2-(((1S,3′R,6′R,7′S,8′E,10′S,11′S,12′R)-6-chloro-10′,11′,12′-trimethyl-13′,13′-dioxido-15′-oxo-3,4-dihydro-2H-spiro[naphthalene-1,22′-[20]oxa[13]thia[1,14]diazatetracyclo[14.7.2.0^3,6.0^19,24]pentacosa [8,16,18,24]tetraen]-7′-yl)oxy)-N,N-dimethylacetamide]
1.19 nM | 1480 nM | CO[C@H]1/C=C/[C@@H](C)[C@H](C)[C@@H](C)S(=O)(=O)NC(=O)c2ccc3c(c2)N(C[C@@H]2CC[C@H]21)C[C@@]1(CCCc2cc(Cl)ccc21)CO3 [Example 1053, (1S,3′R,6′R,7′S,8′E,10′R,11′S,12′R)-6-chloro-7′-methoxy-10′,11′,12′-trimethyl-3,4-dihydro-2H,15′H-spiro[naphthalene-1,22′-[20]oxa[13]thia[1,14]diazatetracyclo[14.7.2.0^3,6.0^19,24]pentacosa [8,16,18,24]tetraen]-15′-one 13′,13′-dioxide]
1.07 nM | 1230 nM | CC(=O)O[C@@H]1/C=C/C[C@H](C)[C@@H](C)S(=O)(=O)NC(=O)c2ccc3c(c2)N(C[C@@H]2CC[C@H]21)C[C@@]1(CCCc2cc(Cl)ccc21)CO3 [Example 1070, (1S,3′R,6′R,7′R,8′E,11′S,12′R)-6-chloro-11′,12′-dimethyl-13′,13′-dioxido-15′-oxo-3,4-dihydro-2H-spiro[naphthalene-1,22′-[20]oxa[13]thia[1,14]diazatetracyclo[14.7.2.0^3,6.0^19,24]pentacosa [8,16,18,24]tetraen]-7′-yl acetate]
1.36 nM | 1510 nM | C[C@@H]1[C@@H](C)C[C@H](CC(=O)N(C)C)/C=C/[C@@H]2CC[C@H]2CN2C[C@@]3(CCCc4cc(Cl)ccc43)COc3ccc(cc32)C(=O)NS1(=O)=O [Example 1072, 2-((1S,3′R,6′S,7′E,9′R,11′S,12′R)-6-chloro-11′,12′-dimethyl-13′,13′-dioxido-15′-oxo-3,4-dihydro-2H-spiro[naphthalene-1,22′-[20]oxa[13]thia[1,14]diazatetracyclo[14.7.2.0^3,6.0^19,24]pentacosa [7,16,18,24]tetraen]-9′-yl)-N,N-dimethylacetamide]
